Data from patent publication US7625943B2, “5-alkyl-7-alkylcarbonate-isoflavone ester and related method” (priority 2004, dated 2009).

Columns and labels:
[1] = after transformation into the parent drug; cited from earlier work
[2] = administered to a human; estimated; cited from earlier work
duration of action = type: in vivo; conditions: estimated; ratio to 5-methyl-7-methoxy-isoflavone
Source text: One limitation of known prodrugs is that, once they are transformed into the parent drug, they are broken down in the body, and particularly in the liver. This breakdown reduces in vivo concentration and bioavailability of the drug. This breakdown effect has been observed with 5-methyl-7-methoxy-isoflavone. In the presently preferred embodiments of the invention, however, the compounds are less prone to such breakdown in the body relative to many known prodrug-type compounds. This in many instances is attributable to the alkylcarbonate ester promoiety, which makes the compound more resistant to hydrolysis and other reactions that inhibit or destroy them in the body. In vivo concentrations thus can be maintained more readily, and bioavailability of the parent isoflavone can be improved. It has been estimated that the duration of action for 5-methyl-7-ethylcarbonate-isoflavone may be twice that of 5-methyl-7-methoxy-isoflavone.

Compound: COc1cc(C)c2c(=O)c(-c3ccccc3)coc2c1 [5-methyl-7-methoxy-isoflavone]
- breakdown effect in the body (liver) reducing in vivo concentration and bioavailability [1]: observed
- proportion of administered prodrug converted in vivo to 7-hydroxy-5-methyl-isoflavone [2]: approximately 50%

Compound: CCOC(=O)Oc1cc(C)c2c(=O)c(-c3ccccc3)coc2c1 [5-methyl-7-ethylcarbonate-isoflavone]
- duration of action relative to 5-methyl-7-methoxy-isoflavone (duration of action): twice
